Toxic doses and inconclusive results are not listed. No stated cut-off is given here; in the data, active means T/C of 150% or more; inactive means T/C below 125%.
Tested on: L1210 leukemia ip in BDF1 mice, survival T/C
Assay: NCI In Vivo Anticancer Drug Screen. Data for tumor model L1210 Leukemia (intraperitoneal) in B6D2F1 (BDF1) mice
Conditions: endpoint: mean survival time, higher = longer survival
Procedure, shortened: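 Mice bearing the transplanted tumor received compound or vehicle. Survival of the treated group was divided by that of the vehicle-treated control group to give the ratio.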

[1] = dose: 100.0 mg/kg/injection, schedule: Q01DX001 (ip), vehicle: carboxymethylcellulose (CMC)
[2] = dose: 100.0 mg/kg/injection, schedule: Q04DX003 (ip), vehicle: saline with Tween-80
[3] = dose: 200.0 mg/kg/injection, schedule: Q01DX001 (ip), vehicle: carboxymethylcellulose (CMC)
[4] = dose: 200.0 mg/kg/injection, schedule: Q04DX003 (ip), vehicle: saline with Tween-80
[5] = dose: 400.0 mg/kg/injection, schedule: Q01DX001 (ip), vehicle: carboxymethylcellulose (CMC)
[6] = dose: 100.0 mg/kg/injection, schedule: Q01DX009 (ip), vehicle: Klucel (hydroxypropylcellulose) (HPC)
[7] = dose: 100.0 mg/kg/injection, schedule: Q04DX003 (ip), vehicle: Klucel (hydroxypropylcellulose) (HPC)
[8] = dose: 200.0 mg/kg/injection, schedule: Q01DX009 (ip), vehicle: Klucel (hydroxypropylcellulose) (HPC)
[9] = dose: 200.0 mg/kg/injection, schedule: Q04DX003 (ip), vehicle: Klucel (hydroxypropylcellulose) (HPC)
[10] = dose: 400.0 mg/kg/injection, schedule: Q04DX003 (ip), vehicle: Klucel (hydroxypropylcellulose) (HPC)
[11] = dose: 25.0 mg/kg/injection, schedule: Q01DX009 (ip), vehicle: saline
[12] = dose: 50.0 mg/kg/injection, schedule: Q01DX009 (ip), vehicle: saline
[13] = dose: 100.0 mg/kg/injection, schedule: Q01DX009 (ip), vehicle: saline
[14] = dose: 100.0 mg/kg/injection, schedule: Q01DX001 (ip), vehicle: saline with Tween-80
[15] = dose: 200.0 mg/kg/injection, schedule: Q01DX001 (ip), vehicle: saline with Tween-80
[16] = dose: 75.0 mg/kg/injection, schedule: Q01DX001 (ip), vehicle: carboxymethylcellulose (CMC)
[17] = dose: 150.0 mg/kg/injection, schedule: Q01DX001 (ip), vehicle: carboxymethylcellulose (CMC)
[18] = dose: 300.0 mg/kg/injection, schedule: Q01DX001 (ip), vehicle: carboxymethylcellulose (CMC)
[19] = dose: 200.0 mg/kg/injection, schedule: Q04DX002 (ip), vehicle: saline with Tween-80
[20] = dose: 50.0 mg/kg/injection, schedule: Q04DX003 (ip), vehicle: saline
[21] = dose: 100.0 mg/kg/injection, schedule: Q04DX003 (ip), vehicle: saline
[22] = dose: 200.0 mg/kg/injection, schedule: Q01DX009 (ip), vehicle: saline
[23] = dose: 100.0 mg/kg/injection, schedule: Q01DX001 (ip), vehicle: other
[24] = dose: 200.0 mg/kg/injection, schedule: Q01DX001 (ip), vehicle: other
[25] = dose: 400.0 mg/kg/injection, schedule: Q01DX009 (ip), vehicle: Klucel (hydroxypropylcellulose) (HPC)

Measured: T/C

CC12c3ccccc3C(c3ccccc31)C1C(=O)OC(=O)C12 (stereo unspecified)
inactive: [1] 98 % of control | [2] 90 % of control | [3] 96 % of control | [4] 92 % of control | [5] 93 % of control

COC(=O)c1cccc(OC)c1
inactive: dose: 50.0 mg/kg/injection, schedule: Q01DX001 (ip), vehicle: carboxymethylcellulose (CMC) 102 % of control | [1] 98 % of control | [3] 104 % of control | [5] 93 % of control

CCSc1nc(N)c(C(N)=O)cc1C#N
inactive: [6] 95 % of control | [7] 101 % of control | [8] 95 % of control | [9] 98 % of control | [10] 97 % of control

ClC1=CCCCC1
inactive: dose: 25.0 mg/kg/injection, schedule: Q01DX009 (ip), vehicle: acetone 95 % of control | dose: 50.0 mg/kg/injection, schedule: Q01DX009 (ip), vehicle: acetone 101 % of control | dose: 100.0 mg/kg/injection, schedule: Q01DX009 (ip), vehicle: acetone 100 % of control

CC(CCC(=O)O)Cc1ccccc1 (stereo unspecified)
inactive: [11] 101 % of control | [12] 101 % of control | [13] 86 % of control

COC(=O)c1ccc(N=Nc2ncc(CC(NC(C)=O)C(=O)OC)[nH]2)cc1 (stereo unspecified)
inactive: [14] 93 % of control | [15] 96 % of control | dose: 400.0 mg/kg/injection, schedule: Q01DX001 (ip), vehicle: saline with Tween-80 100 % of control

Cc1ccc2c(ccc(/C=C/c3ccc(O)c4ccccc34)[n+]2C)c1
inactive: [16] 95 % of control | [17] 97 % of control | [18] 96 % of control

Cc1c[n+]([O-])ccc1N=NN(C)c1ccccc1C
inactive: dose: 18.75 mg/kg/injection, schedule: Q04DX002 (ip), vehicle: saline with Tween-80 102 % of control | dose: 37.5 mg/kg/injection, schedule: Q04DX002 (ip), vehicle: saline with Tween-80 105 % of control | dose: 75.0 mg/kg/injection, schedule: Q04DX002 (ip), vehicle: saline with Tween-80 102 % of control | [19] 86 % of control

CCC(C)C(C1=C(O)c2ccccc2C(=O)C1=O)C1=C(O)c2ccccc2C(=O)C1=O (stereo unspecified)
inactive: [16] 97 % of control | [17] 104 % of control

O=[N+]([O-])C1CCC(C2=CSC3CCCCC3N2)CC1 (stereo unspecified)
inactive: dose: 100.0 mg/kg/injection, schedule: Q04DX002 (ip), vehicle: saline with Tween-80 90 % of control | [19] 101 % of control | dose: 400.0 mg/kg/injection, schedule: Q04DX002 (ip), vehicle: saline with Tween-80 116 % of control

O=C1CNC(=O)N1CCCl
inactive: [20] 100 % of control | [13] 100 % of control | [21] 103 % of control | [22] 104 % of control | dose: 400.0 mg/kg/injection, schedule: Q01DX009 (ip), vehicle: saline 113 % of control | dose: 400.0 mg/kg/injection, schedule: Q04DX003 (ip), vehicle: saline 94 % of control

O=[N+]([O-])c1ccc(/C=C/C=C/c2ccccc2)cc1Cl
inactive: [7] 102 % of control | [9] 102 % of control | [10] 101 % of control

O=C(CBr)c1ccc(-c2ccccc2)cc1
inactive: dose: 6.0 mg/kg/injection, schedule: Q01DX009 (ip), vehicle: Klucel (hydroxypropylcellulose) (HPC) 100 % of control | dose: 12.0 mg/kg/injection, schedule: Q01DX009 (ip), vehicle: Klucel (hydroxypropylcellulose) (HPC) 96 % of control | dose: 25.0 mg/kg/injection, schedule: Q01DX009 (ip), vehicle: Klucel (hydroxypropylcellulose) (HPC) 98 % of control | [7] 98 % of control | [9] 102 % of control

Cc1ccc2c(c1)c(C)cc(=O)n2C
inactive: [23] 96 % of control | [24] 117 % of control

CCOP(=O)(/N=C1/C2CCC(C2)C1C)OCC (stereo unspecified)
inactive: dose: 12.5 mg/kg/injection, schedule: Q04DX003 (ip), vehicle: saline 94 % of control | dose: 25.0 mg/kg/injection, schedule: Q04DX003 (ip), vehicle: saline 105 % of control | [20] 102 % of control

CCc1ccc(Nc2c([N+](=O)[O-])cc(C)cc2[N+](=O)[O-])cc1
inactive: [6] 97 % of control | [7] 103 % of control | [8] 105 % of control | [9] 108 % of control | [25] 113 % of control | [10] 102 % of control

N#CCCN1c2ccccc2Sc2ccc(Cl)cc21
inactive: [6] 96 % of control | [8] 101 % of control | [25] 98 % of control

O=C(Nc1cc(C(F)(F)F)cc(C(F)(F)F)c1)Nc1ccccc1C(F)(F)F
inactive: [6] 98 % of control | [8] 102 % of control | [25] 90 % of control

O=C1C=C(Nc2ccc(O)cc2)c2ccccc2C1=O
inactive: dose: 3.12 mg/kg/injection, schedule: Q01DX009 (ip), vehicle: saline 107 % of control | dose: 6.25 mg/kg/injection, schedule: Q01DX009 (ip), vehicle: saline 102 % of control | dose: 12.5 mg/kg/injection, schedule: Q01DX009 (ip), vehicle: saline 103 % of control | [11] 91 % of control | [20] 103 % of control | [16] 93 % of control | [21] 95 % of control | [17] 100 % of control | [18] 90 % of control

C=C(C(=O)O)C(=O)O
inactive: [12] 102 % of control | [13] 116 % of control | [2] 97 % of control | [22] 100 % of control | [4] 106 % of control

Cc1cccc(N2C(N)=NC(N)=NC2(C)C)c1
inactive: dose: 25.0 mg/kg/injection, schedule: Q04DX003 (ip), vehicle: Klucel (hydroxypropylcellulose) (HPC) 103 % of control | dose: 50.0 mg/kg/injection, schedule: Q04DX003 (ip), vehicle: Klucel (hydroxypropylcellulose) (HPC) 124 % of control | dose: 75.0 mg/kg/injection, schedule: Q01DX001 (ip), vehicle: saline 101 % of control

CCCCCCCCCCCCCCCCCCNC(=O)Nc1cccc(C)c1C
inactive: [6] 92 % of control | [7] 87 % of control | [8] 89 % of control | [9] 92 % of control | [25] 94 % of control | [10] 88 % of control

CCCCCCC(O)CCCCCCCCCCCO (stereo unspecified)
inactive: [6] 108 % of control | [8] 97 % of control | [25] 103 % of control

CC(=O)Nc1ccc(/C=N\NC(=O)c2ccco2)cc1
inactive: [23] 87 % of control | [24] 90 % of control | dose: 400.0 mg/kg/injection, schedule: Q01DX001 (ip), vehicle: other 87 % of control

O=[N+]([O-])C=C1CCCCC1
inactive: [14] 101 % of control | [15] 109 % of control

O=C(O)COc1ccc(C(=O)O)cc1
inactive: dose: 100.0 mg/kg/injection, schedule: Q04DX002 (ip), vehicle: Klucel (hydroxypropylcellulose) (HPC) 111 % of control | dose: 200.0 mg/kg/injection, schedule: Q04DX002 (ip), vehicle: Klucel (hydroxypropylcellulose) (HPC) 97 % of control | dose: 400.0 mg/kg/injection, schedule: Q04DX002 (ip), vehicle: Klucel (hydroxypropylcellulose) (HPC) 101 % of control

Cc1cccc2c1N=C(C(F)(F)F)CC2=O
inactive: dose: 75.0 mg/kg/injection, schedule: Q01DX001 (ip), vehicle: other 100 % of control | dose: 150.0 mg/kg/injection, schedule: Q01DX001 (ip), vehicle: other 96 % of control | dose: 300.0 mg/kg/injection, schedule: Q01DX001 (ip), vehicle: other 97 % of control

CC(C)C(=O)Nc1cccc(Cl)c1
inactive: dose: 100.0 mg/kg/injection, schedule: Q01DX009 (ip), vehicle: saline with Tween-80 95 % of control | dose: 200.0 mg/kg/injection, schedule: Q01DX009 (ip), vehicle: saline with Tween-80 95 % of control | dose: 400.0 mg/kg/injection, schedule: Q01DX009 (ip), vehicle: saline with Tween-80 101 % of control

Reference: PubChem BioAssay AID248 (DTP/NCI, 2004)
